The values below come from ChEMBL document CHEMBL3351578, “Discovery and pharmacological profile of new hydrophilic 5-HT(4) receptor antagonists” (Bioorg Med Chem Lett, 2014).

A short description of data set [1]: Lipophilicity, log D of the compound at pH 7.4. Conditions: buffer. The class given is physicochemical.
Data set [2] deals with T1, 5-hydroxytryptamine receptor 4 (Homo sapiens, UniProt Q13639). In words: Displacement of [3H]GR113808 from human 5HT4b receptor expressed in HEK293 cell membranes.
Data set [3] addresses T1, 5-hydroxytryptamine receptor 4. In words: Antagonist activity against human 5HT4b receptor expressed in HEK293 cells assessed as reduction in 5-HT-stimulated adenylyl cyclase activity. The class given is functional, cell-based.
For data set [4], the target named is Voltage-gated inwardly rectifying potassium channel KCNH2 (Homo sapiens, UniProt Q12809). Put plainly: Inhibition of human ERG expressed in HEK293 cells assessed as reduction in channel tail current by patch clamp method. Format: cell-based.
Data set [5] in a line: Elimination half life in Sprague-Dawley rat at 10 mg/kg, po or 1 mg/kg, iv after 30 mins to 6 hrs by LC/MS/MS method. Conditions: in vivo, read-out: beta t1/2. The class given is ADME, organism-based.
Data set [6] is described as follows: Tmax in Sprague-Dawley rat at 10 mg/kg, po or 1 mg/kg, iv after 30 mins to 6 hrs by LC/MS/MS method. The class given is ADME, organism-based. The note with it: in vivo.
Data set [7] can be described thus: Oral bioavailability in Sprague-Dawley rat at 10 mg/kg after 30 mins to 6 hrs by LC/MS/MS method. Format: ADME, organism-based. The note with it: in vivo.

T1 sequence (Q13639 whole entry): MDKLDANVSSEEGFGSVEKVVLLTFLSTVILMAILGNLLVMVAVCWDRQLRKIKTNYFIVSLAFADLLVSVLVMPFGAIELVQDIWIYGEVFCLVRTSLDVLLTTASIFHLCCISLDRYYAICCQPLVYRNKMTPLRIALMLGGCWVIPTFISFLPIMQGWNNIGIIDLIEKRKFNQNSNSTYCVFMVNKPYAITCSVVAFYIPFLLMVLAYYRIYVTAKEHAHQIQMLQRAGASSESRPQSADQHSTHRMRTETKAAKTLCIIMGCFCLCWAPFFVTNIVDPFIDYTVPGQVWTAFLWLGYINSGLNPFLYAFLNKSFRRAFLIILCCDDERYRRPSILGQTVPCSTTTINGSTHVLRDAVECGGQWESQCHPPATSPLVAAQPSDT
Chain of Voltage-gated inwardly rectifying potassium channel KCNH2 (Q12809 whole entry): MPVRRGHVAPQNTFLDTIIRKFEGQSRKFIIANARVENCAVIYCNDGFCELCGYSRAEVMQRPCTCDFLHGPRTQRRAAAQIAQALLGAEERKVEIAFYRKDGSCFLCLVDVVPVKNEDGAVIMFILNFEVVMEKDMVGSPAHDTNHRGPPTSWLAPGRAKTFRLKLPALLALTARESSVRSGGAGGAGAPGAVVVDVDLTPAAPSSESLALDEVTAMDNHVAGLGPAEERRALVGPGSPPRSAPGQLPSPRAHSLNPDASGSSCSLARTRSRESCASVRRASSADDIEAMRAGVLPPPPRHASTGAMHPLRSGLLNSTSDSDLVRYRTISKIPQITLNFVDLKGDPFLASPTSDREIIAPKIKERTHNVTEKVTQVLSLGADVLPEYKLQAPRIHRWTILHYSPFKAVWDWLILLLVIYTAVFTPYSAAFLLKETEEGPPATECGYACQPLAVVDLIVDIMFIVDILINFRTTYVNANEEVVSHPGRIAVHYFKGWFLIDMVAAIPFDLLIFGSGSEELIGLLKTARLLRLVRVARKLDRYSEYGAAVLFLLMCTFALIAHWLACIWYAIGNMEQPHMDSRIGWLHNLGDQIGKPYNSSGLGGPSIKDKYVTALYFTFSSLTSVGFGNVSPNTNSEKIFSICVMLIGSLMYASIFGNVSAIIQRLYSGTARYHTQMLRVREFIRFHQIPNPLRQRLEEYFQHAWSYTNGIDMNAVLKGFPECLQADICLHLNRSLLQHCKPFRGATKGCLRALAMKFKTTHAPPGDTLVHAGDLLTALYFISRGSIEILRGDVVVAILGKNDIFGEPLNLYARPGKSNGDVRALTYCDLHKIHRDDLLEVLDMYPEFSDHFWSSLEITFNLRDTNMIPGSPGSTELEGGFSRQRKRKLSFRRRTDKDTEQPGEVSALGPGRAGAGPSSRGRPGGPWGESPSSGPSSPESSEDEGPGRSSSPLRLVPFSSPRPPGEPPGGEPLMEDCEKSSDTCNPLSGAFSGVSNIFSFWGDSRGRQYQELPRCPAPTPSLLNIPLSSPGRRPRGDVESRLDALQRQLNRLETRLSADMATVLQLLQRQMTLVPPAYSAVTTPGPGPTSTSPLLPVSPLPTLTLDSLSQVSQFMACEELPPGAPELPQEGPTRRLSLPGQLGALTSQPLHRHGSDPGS

Consider `O=C(NCC1CCN(Cc2ccc(NS(=O)(=O)C3CCCCC3)cc2)CC1)c1c2n(c3ccccc13)CCCO2`, for which the logD in data set [1] amounted to 2.7. The molecule further gave a Ki in data set [2] of 0.2 nM. For the same molecule, the pKb in data set [3] is 8.

With `CS(=O)(=O)Nc1ccc(CN2CCC(CNC(=O)c3cccc4c3OCCO4)CC2)cc1`, the logD in data set [1] is 0.5. In data set [2], this molecule showed a Ki of 0.2 nM. In addition, the pKb in data set [3] was determined as 8.3.

In data set [1], `CS(=O)(=O)Nc1ccc(CN2CCC(CNC(=O)c3c4n(c5ccccc35)CCCO4)CC2)cc1` registered a logD of 1. The affinity in data set [2] corresponds to a Ki of 0.2 nM. The pKb in data set [3] amounted to 8.3.

On to `CC(C(=O)O)c1ccc(CN2CCC(COC(=O)c3c4n(c5ccccc35)CCCO4)CC2)cc1` (stereo not given), for which the IC50 in data set [4] was 25000 nM. The logD in data set [1] came to 1.1. In addition, in data set [2], the Ki is 0.316 nM. Also, the pKb in data set [3] amounted to 8.8.

As for `O=C(NCC1CCN(Cc2ccc(NS(=O)(=O)C3CCCCC3)cc2)CC1)c1c[nH]c2ccccc12`, the logD in data set [1] amounted to 0.5. For the same molecule, the Ki in data set [2] is 501 nM.

Consider `O=C(NCC1CCN(Cc2ccc(NS(=O)(=O)Cc3ccccc3)cc2)CC1)c1c[nH]c2ccccc12`, for which the logD in data set [1] was found to be 1.2. In addition, affinity in data set [2] was put at a Ki of 1000 nM.

As for `CCCCS(=O)(=O)Nc1ccc(CN2CCC(CNC(=O)c3c4n(c5ccccc35)CCCO4)CC2)cc1`, the logD in data set [1] is 2.2. The same molecule had a Ki in data set [2] of 1 nM. Moreover, the pKb in data set [3] turned out to be 9.7.

Molecule `CCCCN1CCC(CNC(=O)c2c3n(c4ccccc24)CCCO3)CC1` [PIBOSEROD] gave a Ki in data set [2] of 0.398 nM. Further, the pKb in data set [3] is 10.5.

In data set [1], `CC(C)CS(=O)(=O)Nc1ccc(CN2CCC(CNC(=O)c3c4n(c5ccccc35)CCCO4)CC2)cc1` registered a logD of 2.2. This molecule showed a Ki in data set [2] of 0.0501 nM. Besides, the pKb in data set [3] worked out at 9.7.

In the case of `O=C(OCC1CCN(CC(O)CO)CC1)c1c2n(c3ccccc13)CCCO2` (stereo not given), the IC50 in data set [4] is 81000 nM. Besides, the half-life in data set [5] was 2.5 h. In data set [1], this molecule showed a logD of 0.2. Further, the Ki in data set [2] is 0.0794 nM. The pKb in data set [3] came to 9.1. Further, the Tmax in data set [6] is 2.42 h. The bioavailability in data set [7] stood at 10.3%.

Consider `CC(C)CS(=O)(=O)Nc1ccc(CN2CCC(CNC(=O)c3cccc4c3OCCO4)CC2)cc1`, for which the logD in data set [1] stood at 1.8. The molecule also showed a Ki in data set [2] of 0.2 nM. Also, the pKb in data set [3] came out at 8.

Molecule `O=C(NCC1CCN(Cc2ccc(NS(=O)(=O)C3CCCCC3)cc2)CC1)c1cccc2c1OCCO2` registered a logD in data set [1] of 2.5. The molecule also showed a Ki in data set [2] of 1.26 nM. Moreover, the pKb in data set [3] amounted to 7.6.

On to `O=C(OCC1CCN(CC2C3CC4C2C4C3C(=O)O)CC1)c1c2n(c3ccccc13)CCCO2` (stereo not given), for which the logD in data set [1] came to 0.7. Further, affinity in data set [2] was put at a Ki of 1.58 nM. Further, in data set [3], the pKb was 8.4.

Regarding `CCCCS(=O)(=O)Nc1ccc(CN2CCC(CNC(=O)c3cccc4c3OCCO4)CC2)cc1`, in data set [1], the logD was 1.8. Moreover, in data set [2], the Ki is 0.251 nM. For the same molecule, the pKb in data set [3] was 8.

For the molecule `Cn1cc(C(=O)OCC2CCN(CCNS(C)(=O)=O)CC2)c2ccccc21`, the pKb in data set [3] was found to be 10.1.

The logD is the decadic logarithm of the distribution of all forms, ionised or not, between an organic phase and buffer at a given pH. Low values mean lower lipophilicity, high ones higher lipophilicity. As a reminder, the Ki is a measure of affinity in units of concentration, obtained from inhibition or displacement. Read a high Ki as weaker binding. By pKb is commonly meant the negative decadic logarithm of the Kb, by convention in mol/L. The term IC50 denotes the concentration that gives 50% inhibition. One may read the Tmax as the time at which the peak concentration occurs. What is called bioavailability is dose-corrected exposure relative to a reference, in per cent. A high value points to good availability.
